As a reminder, the MIC is the lowest concentration found to suppress growth. Higher therefore signals a less susceptible organism.

Converted amounts (≈) assume the structure as drawn. Where two headings read alike, the source gives them in different places.

Test [1] has as its system isolates from peptidomimetic 1-exposed E. coli ATCC 25922 lineages. On the procedure: Continuous selection of resistance was performed for peptidomimetic 1 (Figure 1) and for the clinically relevant natural antimicrobial peptide, polymyxin B. A bacterial suspension of a single colony of E. coli ATCC 25922 was re-inoculated (10 µl) five times in unsupplemented MHB (990 µl). It was then re-inoculated in MHB supplemented with peptidomimetic 1 (ten lineages) or polymyxin B (ten lineages), and after ten re-inoculations at constant peptidomimetic or polymyxin B concentration, the concentrations were doubled. […] Four lineages grown in MHB with MilliQ water were included as control. Re-inoculations were performed twice a day, but were reduced to once a day when growth was slower as assessed by turbidity of the cultures. The total number of passages (supplemented with peptidomimetic/AMP) was 77 times equivalent to approx. 500 generations. For each increase in concentration the lineages were preserved as freezing stocks. Ten colony isolates were randomly selected from each lineage population at 32×MIC and preserved as freezing stocks.
MIC was determined by using the micro-dilution method according to guidelines of the Clinical and Laboratory Standards Institute. Peptidomimetic 1 and erythromycin 1∶2 serial dilutions were prepared from 1024 µg/mL stock solutions to give a final range of 512-0.5 µg/mL in the wells. Ampicillin 1∶2 serial dilutions were prepared from a 256 µg/mL stock solution to give a final range of 128-0.13 µg/mL in the wells. Polymyxin B and gentamicin 1∶2 serial dilutions were prepared from a 64 µg/mL stock solution to give a final range of 32-0.03 µg/mL in the wells.
The population lineages were tested for their susceptibility towards peptidomimetic 1, polymyxin B, gentamicin and ampicillin. Single-culture isolates selected from these populations were additionally tested against peptidomimetic 1, polymyxin B, erythromycin and the five reference AMPs. To estimate the level of cross-resistance to closely related peptidomimetics, MIC determinations were performed for peptidomimetics 2 and 3 (Figure 1) towards selected isolates. The bacterial suspensions were grown overnight in MHB at 37°C for determination of the population MIC, or individual isolates were grown overnight on non-selective BHI agar at 37°C. […] In all experiments, bacterial cells were suspended in 0.9% saline to give a turbidity of 0.13 at OD546 (approximately 1×10^8 CFU/mL) and diluted in MHB pH 7.4 to a final concentration of 5×10^5 CFU/mL in each well. Polypropylene plates (Nunc 442587) were used to minimize peptide binding, and the incubation time was 18–20 hours at 37°C. […] MIC was found in a minimum of two technical (population MIC) or biological (isolate MIC) replicates as the lowest concentration of the AMP or antibiotic where no visible growth was observed.

Test [2] relates to Escherichia coli ATCC 25922. The class given is cell-based. To be noted: wild-type E. coli ATCC 25922; MHB pH 7.4, 5×10^5 CFU/mL, 37°C, 18–20 h. On the procedure: All experiments were performed with Escherichia coli ATCC 25922. Stock cultures of the wild-type strain and lineage isolates were stored at –80°C in 4% (w/v) glycerol, 0.5% (w/v) glucose, 2% (w/v) skimmed milk powder and 3% (w/v) tryptone soy powder. Lineage populations were frozen at –80°C in 50% (w/v) glycerol. All experiments were performed at 37°C. Experiments were carried out in cation-adjusted Mueller Hinton II broth (MHB) (Becton Dickinson 212322) adjusted to pH 7.4 or in 1% (w/v) peptone (Becton Dickinson 211677) for MIC determination of natural AMPs. Brain Heart Infusion (BHI) (CM1135) with agar (VWR 20768.292) 1.5% as gelling agent was used throughout for colony plating.
MIC was determined by using the micro-dilution method according to guidelines of the Clinical and Laboratory Standards Institute. Peptidomimetic 1 and erythromycin 1∶2 serial dilutions were prepared from 1024 µg/mL stock solutions to give a final range of 512-0.5 µg/mL in the wells. Ampicillin 1∶2 serial dilutions were prepared from a 256 µg/mL stock solution to give a final range of 128-0.13 µg/mL in the wells. Polymyxin B and gentamicin 1∶2 serial dilutions were prepared from a 64 µg/mL stock solution to give a final range of 32-0.03 µg/mL in the wells. Also, 1∶2 serial dilutions of the AMPs KR-12, IsCTp, melittin and PEP-1-K were prepared from 64 µg/mL stock solutions to give a final range of 32-0.03 µg/mL in the wells; however this was performed in 1% peptone instead of in MHB since activity was drastically diminished in the latter (not shown).
The population lineages were tested for their susceptibility towards peptidomimetic 1, polymyxin B, gentamicin and ampicillin. Single-culture isolates selected from these populations were additionally tested against peptidomimetic 1, polymyxin B, erythromycin and the five reference AMPs. To estimate the level of cross-resistance to closely related peptidomimetics, MIC determinations were performed for peptidomimetics 2 and 3 (Figure 1) towards selected isolates. […]

Where [3] appears, read: the three most resistant isolates from lineage no. 2.

In the case of `CC(=O)N[C@@H](CCCCN)C(=O)N(CCC(=O)N[C@@H](CCCCN)C(=O)N(CCC(=O)N[C@@H](CCCCN)C(=O)N(CCC(=O)N[C@@H](CCCCN)C(=O)N(CCC(=O)N[C@@H](CCCCN)C(=O)N(CCC(=O)N[C@@H](CCCCN)C(=O)N(CCC(=O)N[C@@H](CCCCN)C(=O)N(CCC(=O)N[C@@H](CCCCN)C(=O)N(CCC(N)=O)[C@@H](C)c1ccccc1)[C@@H](C)c1ccccc1)[C@@H](C)c1ccccc1)[C@@H](C)c1ccccc1)[C@@H](C)c1ccccc1)[C@@H](C)c1ccccc1)[C@@H](C)c1ccccc1)[C@@H](C)c1ccccc1` [peptidomimetic 2], the MIC in test [1] (isolates 2–4 and 2–6 (shared values), two biological replicates, mean when results varied) worked out at 512 µg/mL (≈ 206 µM); in test [1] (isolates 2–7, 2–9 and 2–10 (shared values), two biological replicates, mean when results varied) it was 512 µg/mL (≈ 206 µM); in test [1] (six of the ten isolates from lineage no. 5 (data point shared with wild type), two biological replicates), 64 µg/mL (≈ 25.7 µM). For the same molecule, the “wt MIC” value in test [2] turned out to be 64 µg/mL.
For `CC(=O)N[C@@H](CCCCNC(=N)N)C(=O)N(CCC(=O)N[C@@H](CCCCNC(=N)N)C(=O)N(CCC(=O)N[C@@H](CCCCNC(=N)N)C(=O)N(CCC(=O)N[C@@H](CCCCNC(=N)N)C(=O)N(CCC(=O)N[C@@H](CCCCNC(=N)N)C(=O)N(CCC(=O)N[C@@H](CCCCNC(=N)N)C(=O)N(CCC(N)=O)Cc1ccccc1)Cc1ccccc1)Cc1ccccc1)Cc1ccccc1)Cc1ccccc1)Cc1ccccc1` [peptidomimetic 3], in test [1] (setting [3]), the MIC is reported as 32 µg/mL (≈ 15.6 µM) and the “MIC levels higher than seen for the wild type strain” value is listed as 8 times. Also, the “wt MIC” value in test [2] was found to be 4 µg/mL.

The values above are taken from publication PMC3764026, “Adaptive Evolution of Escherichia coli to an α-Peptide/β-Peptoid Peptidomimetic Induces Stable Resistance” (PLoS ONE, 2013).
